Assay results as given in ChEMBL document CHEMBL1133141, “Synthesis and biological activities of hapalosin derivatives with modification at the C12 position” (2000).

Key:
[1] = test system: HT-1080; experiment: Compound was tested for the induction of apoptosis in human fibrosarcoma HT1080 cell line; No induction of apoptosis up to 10 ug/mL; assay type: functional, cell-based
[2] = test system: A2780; experiment: MDR-reversing activity was measured by vincristine accumulation in the multidrug resistant 2780AD, a subline of A2780 ovarian carcinoma cells at 10 µg/mL

| Structure (SMILES) | Concentration [1] | Vincristine accumulation (% of control) [2] [%] |
| --- | --- | --- |
| CCCCCCC[C@H]1OC(=O)C[C@@H](O)[C@H](Cc2ccccc2)N(C)C(=O)[C@H](C(C)CC)OC(=O)[C@H]1C (stereo partly drawn) | No induction | 308 |
| CCCCCCC[C@H]1OC(=O)C[C@@H](O)[C@H](Cc2ccccc2)N(C)C(=O)[C@H](C)OC(=O)[C@H]1C | No induction | 441 |
| CCCCCCC[C@H]1OC(=O)C[C@@H](O)[C@H](Cc2ccccc2)N(C)C(=O)[C@H](CC(C)C)OC(=O)[C@H]1C | No induction | 288 |
| COc1ccc(CCN(C)CCCC(C#N)(c2ccc(OC)c(OC)c2)C(C)C)cc1OC (stereo not drawn) [VERAPAMIL] |  | 350 |
| CCCCCCC[C@H]1OC(=O)C[C@@H](O)[C@H](Cc2ccccc2)N(C)C(=O)[C@H](CCSC)OC(=O)[C@H]1C | No induction | 269 |
| CCCCCCC[C@H]1OC(=O)C[C@@H](O)[C@H](Cc2ccccc2)N(C)C(=O)[C@H](Cc2ccccc2)OC(=O)[C@H]1C | No induction | 254 |
| CCCCCCC[C@H]1OC(=O)C[C@@H](O)[C@H](Cc2ccccc2)N(C)C(=O)[C@H](C(C)C)OC(=O)[C@H]1C [HAPALOSIN] | No induction | 267 |
